Assay results from patent US9796711B2, “Substituted pyrazolo[3,4-b]pyridin-6-carboxylic acids and method of use” (AbbVie S.àr.l., priority 2015, dated 2017).

Key:
[1] = target: T1, ΔF508-CFTR (Homo sapiens, UniProt P13569, DEL508-508); assay: CFTR cell surface levels using HRP-tagged ΔF508-CFTR expressing CFBE cells, in the presence of a co-corrector; type: cell-based; settings: HRP-tagged ΔF508-CFTR expressing CFBE cells, in the presence of 3 μM co-corrector; for EC50: read-out: EC50
T1 construct: host or cells: CFBE41o-, doxycycline-inducible
T1 sequence (P13569 with tags, fused parts or gaps DEL508-508): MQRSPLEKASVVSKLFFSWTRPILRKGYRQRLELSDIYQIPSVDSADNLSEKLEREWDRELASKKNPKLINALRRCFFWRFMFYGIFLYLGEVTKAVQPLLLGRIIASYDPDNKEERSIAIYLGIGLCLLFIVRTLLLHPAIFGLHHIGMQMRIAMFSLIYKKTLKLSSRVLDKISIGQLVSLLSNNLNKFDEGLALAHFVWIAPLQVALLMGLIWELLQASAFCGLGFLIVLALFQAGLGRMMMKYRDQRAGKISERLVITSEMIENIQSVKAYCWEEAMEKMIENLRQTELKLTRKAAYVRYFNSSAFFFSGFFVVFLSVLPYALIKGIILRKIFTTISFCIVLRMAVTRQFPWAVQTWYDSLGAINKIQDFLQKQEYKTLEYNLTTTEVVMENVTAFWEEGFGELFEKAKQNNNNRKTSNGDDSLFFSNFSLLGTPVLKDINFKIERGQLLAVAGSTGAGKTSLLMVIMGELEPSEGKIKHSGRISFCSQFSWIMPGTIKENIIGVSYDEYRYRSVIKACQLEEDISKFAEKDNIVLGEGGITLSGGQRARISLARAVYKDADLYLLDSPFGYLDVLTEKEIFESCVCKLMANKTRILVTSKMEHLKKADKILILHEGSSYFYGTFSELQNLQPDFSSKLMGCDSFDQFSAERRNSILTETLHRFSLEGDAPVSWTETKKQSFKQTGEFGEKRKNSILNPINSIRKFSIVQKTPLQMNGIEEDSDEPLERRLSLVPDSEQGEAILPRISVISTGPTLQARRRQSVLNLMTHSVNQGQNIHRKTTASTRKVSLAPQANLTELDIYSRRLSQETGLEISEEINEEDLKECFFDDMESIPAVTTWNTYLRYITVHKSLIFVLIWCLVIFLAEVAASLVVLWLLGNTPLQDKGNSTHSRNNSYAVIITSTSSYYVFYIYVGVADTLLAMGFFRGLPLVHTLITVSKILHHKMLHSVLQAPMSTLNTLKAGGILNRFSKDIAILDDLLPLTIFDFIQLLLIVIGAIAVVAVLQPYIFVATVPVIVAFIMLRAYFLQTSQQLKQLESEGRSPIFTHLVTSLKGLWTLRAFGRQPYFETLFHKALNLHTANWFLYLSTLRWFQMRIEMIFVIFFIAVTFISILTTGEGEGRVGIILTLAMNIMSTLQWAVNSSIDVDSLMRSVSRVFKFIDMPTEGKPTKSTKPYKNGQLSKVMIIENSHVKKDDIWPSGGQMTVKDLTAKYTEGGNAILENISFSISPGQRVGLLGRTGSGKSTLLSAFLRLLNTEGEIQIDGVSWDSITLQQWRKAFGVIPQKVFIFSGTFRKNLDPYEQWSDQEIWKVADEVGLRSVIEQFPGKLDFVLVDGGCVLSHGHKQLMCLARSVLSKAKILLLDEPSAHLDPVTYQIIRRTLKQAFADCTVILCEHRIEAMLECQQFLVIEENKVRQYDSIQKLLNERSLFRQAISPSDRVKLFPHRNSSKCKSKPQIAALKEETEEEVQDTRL
In short: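 Cells were seeded with 0.5 μg/mL doxycycline and held 68 h at 37 °C. Test compounds plus 3 μM co-corrector (final 0.1% DMSO) were then added for 20 h at 33 °C. Washed cells received HRP substrate, and luminescence was normalized between DMSO and 3 μM co-corrector controls.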

[2] = target: T1, ΔF508-CFTR; assay: CFTR cell surface levels using HRP-tagged ΔF508-CFTR expressing CFBE cells, intrinsic corrector capacity; type: cell-based; settings: HRP-tagged ΔF508-CFTR expressing CFBE cells, intrinsic corrector capacity (no co-corrector), 33° C., 20 hours; for EC50: read-out: EC50
In short: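 Here the cells express ΔF508-CFTR with horseradish peroxidase inserted in extracellular loop 4, so only rescued channel at the surface gives luminescent signal. Compounds act on their own, 20 h at the reduced temperature of 33 °C; values are percent activity relative to DMSO and a 3 μM corrector.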

| Structure (SMILES) | % Activation [1] [%] | EC50 [1] [nM] | % Activation [2] [%] | EC50 [2] [nM] |
| --- | --- | --- | --- | --- |
| COC(C)(C)C1CCN(c2cc(C(=O)O)nc3c2c(C2CCC2)nn3-c2ccccc2)CC1 [compound 605, 3-cyclobutyl-4-[4-(2-methoxypropan-2-yl)piperidin-1-yl]-1-phenyl-1H-pyrazolo[3,4-b]pyridine-6-carboxylic acid] | 531.3 | 43.6 | 292.8 | 82.1 |
| CN(C)CCCCOc1cc(C(=O)O)nc2c1c(C1CCC1)nn2-c1ccccc1 [compound 611, 3-cyclobutyl-4-[4-(dimethylamino)butoxy]-1-phenyl-1H-pyrazolo[3,4-b]pyridine-6-carboxylic acid] | 278.1 | 2930 | 104.6 | 3330 |
| CC(=O)N1CCC(Oc2cc(C(=O)O)nc3c2c(C2CCC2)nn3-c2ccccc2)CC1 [compound 612, 4-[(1-acetylpiperidin-4-yl)oxy]-3-cyclobutyl-1-phenyl-1H-pyrazolo[3,4-b]pyridine-6-carboxylic acid] | 266.9 | 1180 | 109.5 | 3330 |
| O=C(O)c1cc(OCC(F)(F)F)c2c(C3CCC3)nn(-c3ccccc3)c2n1 [compound 613, 3-cyclobutyl-1-phenyl-4-(2,2,2-trifluoroethoxy)-1H-pyrazolo[3,4-b]pyridine-6-carboxylic acid] | 292 | 739 | 99.78 | 1600 |
| CN(C)CCOCCOc1cc(C(=O)O)nc2c1c(C1CCC1)nn2-c1ccccc1 [compound 614, 3-cyclobutyl-4-{2-[2-(dimethylamino)ethoxy]ethoxy}-1-phenyl-1H-pyrazolo[3,4-b]pyridine-6-carboxylic acid] | 176.9 | 3330 | 32.02 | 3330 |
| C[C@@H](CN(C)C)Oc1cc(C(=O)O)nc2c1c(C1CCC1)nn2-c1ccccc1 [compound 615, 3-cyclobutyl-4-{[(2S)-1-(dimethylamino)propan-2-yl]oxy}-1-phenyl-1H-pyrazolo[3,4-b]pyridine-6-carboxylic acid] | 216.65 | 2330 | 44.6 | 3330 |
| O=C(O)c1cc(OCC2CCC(F)(F)CC2)c2c(C3CCC3)nn(-c3ccccc3)c2n1 [compound 616, 3-cyclobutyl-4-[(4,4-difluorocyclohexyl)methoxy]-1-phenyl-1H-pyrazolo[3,4-b]pyridine-6-carboxylic acid] | 389.95 | 83.3 | 144.2 | 116 |
| O=C1CC[C@H](COc2cc(C(=O)O)nc3c2c(C2CCC2)nn3-c2ccccc2)N1 [compound 617, 3-cyclobutyl-4-{[(2R)-5-oxopyrrolidin-2-yl]methoxy}-1-phenyl-1H-pyrazolo[3,4-b]pyridine-6-carboxylic acid] | 127.3 | > 10000 | 7.139 | > 10000 |
| CC1(C)OC[C@@H](COc2cc(C(=O)O)nc3c2c(C2CCC2)nn3-c2ccccc2)O1 [compound 618, 3-cyclobutyl-4-{[(4R)-2,2-dimethyl-1,3-dioxolan-4-yl]methoxy}-1-phenyl-1H-pyrazolo[3,4-b]pyridine-6-carboxylic acid] | 315.25 | 351 | 105.9 | 547 |
| O=C1CC[C@H](Oc2cc(C(=O)O)nc3c2c(C2CCC2)nn3-c2ccccc2)CN1 [compound 619, 3-cyclobutyl-4-{[(3S)-6-oxopiperidin-3-yl]oxy}-1-phenyl-1H-pyrazolo[3,4-b]pyridine-6-carboxylic acid] | 134.1 | > 10000 | 7.484 | > 10000 |
| CCC1(COc2cc(C(=O)O)nc3c2c(C2CCC2)nn3-c2ccccc2)COCOC1 [compound 620, 3-cyclobutyl-4-[(5-ethyl-1,3-dioxan-5-yl)methoxy]-1-phenyl-1H-pyrazolo[3,4-b]pyridine-6-carboxylic acid] | 323.25 | 170 | 147.4 | 250 |
| CN1[C@@H]2CC[C@H]1C[C@@H](Oc1cc(C(=O)O)nc3c1c(C1CCC1)nn3-c1ccccc1)C2 [compound 621, 3-cyclobutyl-4-{[(3-endo)-8-methyl-8-azabicyclo[3.2.1]octan-3-yl]oxy}-1-phenyl-1H-pyrazolo[3,4-b]pyridine-6-carboxylic acid] | 294.75 | 3140 | 89.46 | 3330 |
| CC1(COc2cc(C(=O)O)nc3c2c(C2CCC2)nn3-c2ccccc2)COCOC1 [compound 622, 3-cyclobutyl-4-[(5-methyl-1,3-dioxan-5-yl)methoxy]-1-phenyl-1H-pyrazolo[3,4-b]pyridine-6-carboxylic acid] | 275.2 | 67.5 | 124.5 | 165 |
| O=C(O)c1cc(OCCN2CCC3(CC2)OCCO3)c2c(C3CCC3)nn(-c3ccccc3)c2n1 [compound 623, 3-cyclobutyl-4-[2-(1,4-dioxa-8-azaspiro[4.5]decan-8-yl)ethoxy]-1-phenyl-1H-pyrazolo[3,4-b]pyridine-6-carboxylic acid] | 308.3 | 501 | 106.8 | 1160 |
| CCN(CC)CCCOc1cc(C(=O)O)nc2c1c(C1CCC1)nn2-c1ccccc1 [compound 624, 3-cyclobutyl-4-[3-(diethylamino)propoxy]-1-phenyl-1H-pyrazolo[3,4-b]pyridine-6-carboxylic acid] | 281.85 | 2210 | 98.14 | 3330 |
| O=C(O)c1cc(OCCN(C2CCCCC2)C2COC2)c2c(C3CCC3)nn(-c3ccccc3)c2n1 [compound 625, 3-cyclobutyl-4-{2-[cyclohexyl(oxetan-3-yl)amino]ethoxy}-1-phenyl-1H-pyrazolo[3,4-b]pyridine-6-carboxylic acid] | 326.75 | 126 | 135.2 | 300 |
| CS(=O)(=O)N1CCC(F)(COc2cc(C(=O)O)nc3c2c(C2CCC2)nn3-c2ccccc2)CC1 [compound 626, 3-cyclobutyl-4-{[4-fluoro-1-(methanesulfonyl)piperidin-4-yl]methoxy}-1-phenyl-1H-pyrazolo[3,4-b]pyridine-6-carboxylic acid] | 398.15 | 1010 | 223.1 | 2710 |
| CS(=O)(=O)C1(COc2cc(C(=O)O)nc3c2c(C2CCC2)nn3-c2ccccc2)CCOCC1 [compound 627, 3-cyclobutyl-4-{[4-(methanesulfonyl)oxan-4-yl]methoxy}-1-phenyl-1H-pyrazolo[3,4-b]pyridine-6-carboxylic acid] | 126.25 | > 10000 | 9.221 | > 10000 |
| O=C(O)c1cc(OCCN2CCCC2)c2c(C3CCC3)nn(-c3ccccc3)c2n1 [compound 628, 3-cyclobutyl-1-phenyl-4-[2-(pyrrolidin-1-yl)ethoxy]-1H-pyrazolo[3,4-b]pyridine-6-carboxylic acid] | 217.7 | 3330 | 67.69 | 3180 |
| CC(C)(COc1cc(C(=O)O)nc2c1c(C1CCC1)nn2-c1ccccc1)S(C)(=O)=O [compound 629, 3-cyclobutyl-4-[2-(methanesulfonyl)-2-methylpropoxy]-1-phenyl-1H-pyrazolo[3,4-b]pyridine-6-carboxylic acid] | 252.2 | 2160 | 94.42 | 3330 |
| CC1(COc2cc(C(=O)O)nc3c2c(C2CCC2)nn3-c2ccccc2)CC1 [compound 630, 3-cyclobutyl-4-[(1-methylcyclopropyl)methoxy]-1-phenyl-1H-pyrazolo[3,4-b]pyridine-6-carboxylic acid] | 323.7 | 254 | 136.15 | 308 |
| CC1(CCOc2cc(C(=O)O)nc3c2c(C2CCC2)nn3-c2ccccc2)CC1 [compound 631, 3-cyclobutyl-4-[2-(1-methylcyclopropyl)ethoxy]-1-phenyl-1H-pyrazolo[3,4-b]pyridine-6-carboxylic acid] | 283 | 177 | 99.143 | 346 |
| CS(=O)(=O)C1(COc2cc(C(=O)O)nc3c2c(C2CCC2)nn3-c2ccccc2)CCC1 [compound 632, 3-cyclobutyl-4-{[1-(methanesulfonyl)cyclobutyl]methoxy}-1-phenyl-1H-pyrazolo[3,4-b]pyridine-6-carboxylic acid] | 129.55 | > 10000 | 18.94 | > 10000 |
| O=C(O)c1cc(OCCC2CCCCC2)c2c(C3CCC3)nn(-c3ccccc3)c2n1 [compound 633, 3-cyclobutyl-4-(2-cyclohexylethoxy)-1-phenyl-1H-pyrazolo[3,4-b]pyridine-6-carboxylic acid] | 279.27 | 714 | 66.87 | 666 |
